According to ChEMBL document CHEMBL3885861, “Open TG-GATES”:

Organism: Rattus norvegicus
Test: Open TG-GATES - Regimen: Single
Assay type: toxicity, organism-based, Sprague-Dawley
Design: regimen Single, gender Male, age 6 weeks
Settings: in vivo, po, 100 mg/kg, route gavage, dose level Low; for APTT / Bas / Eos / Fbg / Hb / Ht / Lym / MCH / MCHC / MCV / Mono / Neu / PT / Plat / RBC / Ret / WBC: tissue Blood; for KIDNEY_L / KIDNEY_R / KIDNEY_TOTAL: tissue Kidney; for LIVER: tissue Liver; for A/G / ALP / ALT / AST / BUN / CRE / Ca / Cl / DBIL / GLC / IP / K / LDH / Na / PL / RALB / TBIL / TC / TG / TP / gamma-GTP: tissue Plasma

## CC(S)C(=O)NCC(=O)O (configuration not stated) [TIOPRONIN]
3 h
  TERMINAL_BW: 208 g
  APTT: 22.4 s
  Bas: 0%
  Eos: 0.6%
  Fbg: 295.6 mg/dL
  Hb: 13 g/dL
  Ht: 39.9%
  Lym: 79.2%
  MCH: 20 pg
  MCHC: 32.6%
  MCV: 61.6 fL
  Mono: 2.4%
  Neu: 16.8%
  PT: 16.5 s
  Plat: 113.3 x10_4/uL
  RBC: 649.2 x10_4/ul
  Ret: 7.6%
  WBC: 73.6 x10_2/uL
  KIDNEY_L: 0.9 g
  KIDNEY_R: 0.9 g
  KIDNEY_TOTAL: 1.8 g
  LIVER: 9 g
  A/G: 1.2
  ALP: 1568.4 IU/L
  ALT: 48.2 IU/L
  AST: 75.8 IU/L
  BUN: 10.2 mg/dL
  CRE: 0.1 mg/dL
  Ca: 10.7 mg/dL
  Cl: 106.8 meq/L
  DBIL: 0 mg/dL
  GLC: 185.6 mg/dL
  IP: 8.6 mg/dL
  K: 4.1 meq/L
  LDH: 172.8 IU/L
  Na: 142.8 meq/L
  PL: 117.6 mg/dL
  RALB: 2.9 g/dL
  TBIL: 0.02 mg/dL
  TC: 68.6 mg/dL
  TG: 49.6 mg/dL
  TP: 5.4 g/dL
  gamma-GTP: 1.8 IU/L
6 h
  TERMINAL_BW: 205.7 g
  APTT: 22.4 s
  Bas: 0%
  Eos: 1%
  Fbg: 301.8 mg/dL
  Hb: 12.9 g/dL
  Ht: 39.5%
  Lym: 75.8%
  MCH: 20.1 pg
  MCHC: 32.6%
  MCV: 61.6 fL
  Mono: 2.6%
  Neu: 20.2%
  PT: 16 s
  Plat: 118.6 x10_4/uL
  RBC: 641.6 x10_4/ul
  Ret: 7.7%
  WBC: 93.1 x10_2/uL
  KIDNEY_L: 0.9 g
  KIDNEY_R: 0.9 g
  KIDNEY_TOTAL: 1.9 g
  LIVER: 8.8 g
  A/G: 1.2
  ALP: 1456.8 IU/L
  ALT: 39.6 IU/L
  AST: 70.8 IU/L
  BUN: 8.4 mg/dL
  CRE: 0.1 mg/dL
  Ca: 10.6 mg/dL
  Cl: 105.8 meq/L
  DBIL: 0 mg/dL
  GLC: 185.2 mg/dL
  IP: 9.8 mg/dL
  K: 4.3 meq/L
  LDH: 154.6 IU/L
  Na: 144 meq/L
  PL: 125.6 mg/dL
  RALB: 2.9 g/dL
  TBIL: 0.018 mg/dL
  TC: 76.4 mg/dL
  TG: 50.8 mg/dL
  TP: 5.4 g/dL
  gamma-GTP: 2 IU/L
9 h
  TERMINAL_BW: 205.8 g
  APTT: 22.6 s
  Bas: 0%
  Eos: 0.2%
  Fbg: 291.8 mg/dL
  Hb: 12.5 g/dL
  Ht: 39.1%
  Lym: 80.6%
  MCH: 20.4 pg
  MCHC: 32%
  MCV: 63.7 fL
  Mono: 1.8%
  Neu: 16.2%
  PT: 16.4 s
  Plat: 114 x10_4/uL
  RBC: 614.2 x10_4/ul
  Ret: 8.3%
  WBC: 72.6 x10_2/uL
  KIDNEY_L: 0.9 g
  KIDNEY_R: 0.9 g
  KIDNEY_TOTAL: 1.8 g
  LIVER: 8.5 g
  A/G: 1.1
  ALP: 1275.6 IU/L
  ALT: 39.2 IU/L
  AST: 70.2 IU/L
  BUN: 12.8 mg/dL
  CRE: 0.1 mg/dL
  Ca: 10.6 mg/dL
  Cl: 106.4 meq/L
  DBIL: 0.002 mg/dL
  GLC: 190.2 mg/dL
  IP: 9.5 mg/dL
  K: 4.2 meq/L
  LDH: 142.8 IU/L
  Na: 143.8 meq/L
  PL: 119.6 mg/dL
  RALB: 2.8 g/dL
  TBIL: 0.01 mg/dL
  TC: 68.8 mg/dL
  TG: 48.4 mg/dL
  TP: 5.4 g/dL
  gamma-GTP: 1.2 IU/L
24 h
  TERMINAL_BW: 222 g
  APTT: 20.5 s
  Bas: 0%
  Eos: 0.8%
  Fbg: 302.2 mg/dL
  Hb: 12.9 g/dL
  Ht: 38.6%
  Lym: 81.8%
  MCH: 20.5 pg
  MCHC: 33.3%
  MCV: 61.6 fL
  Mono: 2.6%
  Neu: 13.8%
  PT: 16.3 s
  Plat: 111.9 x10_4/uL
  RBC: 627.6 x10_4/ul
  Ret: 7.4%
  WBC: 75.5 x10_2/uL
  KIDNEY_L: 1 g
  KIDNEY_R: 1 g
  KIDNEY_TOTAL: 1.9 g
  LIVER: 9.6 g
  A/G: 1.2
  ALP: 1761 IU/L
  ALT: 45.6 IU/L
  AST: 76.8 IU/L
  BUN: 15.2 mg/dL
  CRE: 0.1 mg/dL
  Ca: 10.8 mg/dL
  Cl: 106.2 meq/L
  DBIL: 0 mg/dL
  GLC: 184.8 mg/dL
  IP: 7.4 mg/dL
  K: 4.4 meq/L
  LDH: 166 IU/L
  Na: 144.4 meq/L
  PL: 144 mg/dL
  RALB: 3 g/dL
  TBIL: 0.01 mg/dL
  TC: 82.4 mg/dL
  TG: 93 mg/dL
  TP: 5.6 g/dL
  gamma-GTP: 1.2 IU/L
